Source: patent US8263344B2, “Compounds regulating calreticulin, KDEL receptor and/or Erp-57 cell surface exposure and uses thereof to evaluate the efficiency of a cancer treatment” (Institut Gustave Roussy, priority 2006, dated 2012)

Tests used:
[1] = tested on: CT26 tumour cells; test: Anti-tumour vaccination with treated (dying) CT26 cells and challenge with live tumour cells; assay type: in vivo, BALB/c mice; settings: for immunogenic apoptosis / immunogenic cell death (protection against tumour growth): dying CT26 cells injected into one flank, rechallenge with live tumour cells in opposite flank 8 days later
[2] = tested on: CT26 cells; test: Fluorescence detection of cell surface CRT; assay type: cell-based, murine
Protocol: CT26 cells were cultured at 37° C. under 5% CO2 in RPMI 1640 medium supplemented with 10% FCS, penicillin, streptomycin, 1 mM pyruvate and 10 mM HEPES in the presence of doxorubicin (DX; 24 h, 25 μM), mitoxantrone (Mitox; 24 h, 1 μM, Sigma), idarubicin (24 h, 1 μM, Aventis, France), mitomycin C (30 μM, 48 h; Sanofi-Synthelabo, France), and/or zVAD-fmk (50 μM, 24 h; Bachem), tunicamycin (24 h, 65 μM), thapsigargin (24 h, 30 μM), brefeldin A (24 h, 50 μM, Sigma), etoposide (48 h, 25 μM, Tava classics), MG132 (48 h, 10 μM), ALLN (48 h, […]), betulinic acid (24 h, 10 μM), Hoechst 33343 (24 h, 0.2 μM), camptothecine (24 h, 15 μM), lactacystin (48 h, 60 μM), BAY 11-8072 (24 h, 30 μM), staurosporine (24 h, 1.5 μM), bafilomycin A1 (48 h, 300 nM), arsenic trioxide (24 h, 30 μM), C2-ceramide (C2-C; 24 h, 60 μM), calyculin A (48 h, 30 nM), or tautomycin (48 h, […], Sigma) and/or salubrinal (48 h, […], Calbiochem).
CT26 cells (on a glass slide or in 12-well plates) were first washed with FACS buffer (1×PBS, 5% fetus bovine serum, and 0.1% sodium azide) and then incubated with rabbit anti-mouse CRT antibody (1:100, Stressgen) in FACS buffer at 4° C. for 30 min. Cells reacted with anti-rabbit IgG (H+L) Alexa fluor 488-conjugates (1:500) in FACS buffer at 4° C. for 30 min. After washing three times with FACS buffer, surface CRT was detected by cytofluorometric analysis on a FACS Vantage. In some experiments, cells were fixed with 4% paraformaldehyde, counterstained with Hoechst (2 μM; Sigma), followed by fluorescence microscopic assessment with a Leica IRE2 microscope equipped with a DC300F camera.

[3] = tested on: CT26 tumours; test: Single intratumoural injection into established CT26 tumours, immunocompetent mice; assay type: in vivo, BALB/c mice; settings: mouse, in vivo
[4] = tested on: CT26 tumours; test: Single intratumoural injection into established CT26 tumours, athymic mice; parameters: species or system nu/nu Balb/c mice; settings: mouse, in vivo

Question: With C[C@H]1CCC/C=C/[C@@H]2C[C@H](O)C[C@H]2[C@H](O)/C=C/C(=O)O1 [brefeldin, brefeldin A] as the compound, how does the “immunogenic apoptosis / immunogenic cell death (protection against tumour growth)” value [1] read?
Answer: failed to induce immunogenic apoptosis

Question: With C/C=C(/C)C(=O)O[C@H]1C(C)=C2[C@H]([C@@H]1OC(=O)CCCCCCC)[C@@](C)(OC(C)=O)C[C@H](OC(=O)CCC)[C@@]1(O)[C@H]2OC(=O)[C@@]1(C)O [thapsigargin] as the compound, how does the “immunogenic apoptosis / immunogenic cell death (protection against tumour growth)” value [1] read?
Answer: failed to induce immunogenic apoptosis

Question: With CCCCCCCCCCCCC/C=C/[C@@H](O)[C@H](CO)NC(C)=O [C2 ceramide, C2-ceramide] as the compound, how does the “immunogenic apoptosis / immunogenic cell death (protection against tumour growth)” value [1] read?
Answer: failed to induce immunogenic apoptosis

Question: How did the “immunogenic apoptosis / immunogenic cell death (protection against tumour growth)” value [1] turn out when CC[C@@]1(O)C(=O)OCc2c1cc1n(c2=O)Cc2cc3ccccc3nc2-1 [camptothecin] was run?
Answer: failed to induce immunogenic apoptosis

Question: With tunicamycin as the compound, how does the “immunogenic apoptosis / immunogenic cell death (protection against tumour growth)” value [1] read?
Answer: failed to induce immunogenic apoptosis

Question: Which “immunogenic apoptosis / immunogenic cell death (protection against tumour growth)” value [1] does the source give for CC(=O)[C@]1(O)Cc2c(O)c3c(c(O)c2[C@@H](O[C@H]2C[C@H](N)[C@H](O)[C@H](C)O2)C1)C(=O)c1ccccc1C3=O [idarubicin] here?
Answer: elicited immunogenic cell death

Question: For CO[C@@]12[C@H](COC(N)=O)C3=C(C(=O)C(C)=C(N)C3=O)N1C[C@@H]1N[C@@H]12 [mitomycin C], which “CRT exposure at the cell surface” value [2] is on record?
Answer: fail to induce ecto-CRT

Question: What about the “therapeutic effect of intratumoural injection, single agent, immunocompetent mice” value [3] of the same compound?
Answer: no major therapeutic effect

Question: What about the “therapeutic effect of intratumoural injection, single agent, nu/nu mice” value [4] of the same compound?
Answer: no major therapeutic effect

Question: For CCCCCCCCCCCCC/C=C/[C@@H](O)[C@H](CO)NC(=O)CCCCCCCCCCCCCCC [C16-ceramide], which “ecto-CRT after C16-ceramide” value ([2]; 30 μM, 2 h) is on record?
Answer: rapidly induces ecto-CRT

Question: CCOc1ccc(-c2nc3ccc(-c4nc5ccc(N6CCN(C)CC6)cc5[nH]4)cc3[nH]2)cc1 [Hoechst 33342] was tested. Which “immunogenic apoptosis / immunogenic cell death (protection against tumour growth)” value [1] did it give?
Answer: failed to induce immunogenic apoptosis

Question: Which “effect on CRT exposure induced by anthracyclins and PP1/GADD34 inhibitors” value ([2]; pre-incubation for 1 h with the inhibitor) does the source give for C/C1=C/C(=O)O[C@@H]2C[C@@H](CC[C@H](C)/C=C\C=C\CC1)O[C@@](O)([C@@H]1CSC(=O)N1)C2 [latrunculin A] here?
Answer: abolished

Question: Which “CRT exposure at the cell surface” value [2] does the source give for COc1cc([C@@H]2c3cc4c(cc3[C@@H](O[C@@H]3O[C@@H]5CO[C@@H](C)O[C@H]5[C@H](O)[C@H]3O)[C@H]3COC(=O)[C@H]23)OCO4)cc(OC)c1O [etoposide] here?
Answer: fail to induce ecto-CRT

Question: What about the “immunogenic apoptosis / immunogenic cell death (protection against tumour growth)” value [1] of the same compound?
Answer: failed to induce immunogenic apoptosis

Question: What about the “immunogenicity of sham-coated cells treated with etoposide” value ([1]; mouse, in vivo) of the same compound?
Answer: poorly immunogenic

Question: And the “therapeutic effect of intratumoural injection, single agent, immunocompetent mice” value [3]?
Answer: no major therapeutic effect

Question: What about the “therapeutic effect of intratumoural injection, single agent, nu/nu mice” value [4] of the same compound?
Answer: no major therapeutic effect

Question: For COC[C@@H]([C@H](O)[C@H](O)C(=O)NCC[C@H](C)c1nc(/C=C/C[C@@H]2O[C@]3(C[C@@H](O)[C@@H]2C)O[C@H]([C@H](C[C@H](O)[C@H](C)[C@H](O)[C@H](C)/C=C(C)/C(C)=C/C=C/C(C)=C\C#N)OC)[C@H](OP(=O)(O)O)C3(C)C)co1)N(C)C [calyculin A], which “CRT exposure at the cell surface” value [2] is on record?
Answer: efficiently induced

Question: And the “immunogenic cell death by PP1/GADD34 inhibition alone” value ([1]; mouse, in vivo)?
Answer: not sufficient to induce immunogenic cell death
